From article PMC11808397, “Development of selective nanomolar cyclic peptide ligands as GBA1 enzyme stabilisers” (RSC Chemical Biology, 2025)
Positions of bridges follow the written chain, without caps; N, C: chain ends. Non-standard residues stand in square brackets, D forms with d. Residues, ends and D or L forms follow the SMILES beside them.

Experiments:
GBA2 = target: T1, GBA2 (Homo sapiens, UniProt Q9HCG7); assay: GBA2 inhibition in overexpressing HEK293T lysates; type: biochemical; conditions: McIlvaine pH 5.8, 4-MU substrate
T1 construct: expressed in transfected cells
T1 sequence (Q9HCG7 1-927): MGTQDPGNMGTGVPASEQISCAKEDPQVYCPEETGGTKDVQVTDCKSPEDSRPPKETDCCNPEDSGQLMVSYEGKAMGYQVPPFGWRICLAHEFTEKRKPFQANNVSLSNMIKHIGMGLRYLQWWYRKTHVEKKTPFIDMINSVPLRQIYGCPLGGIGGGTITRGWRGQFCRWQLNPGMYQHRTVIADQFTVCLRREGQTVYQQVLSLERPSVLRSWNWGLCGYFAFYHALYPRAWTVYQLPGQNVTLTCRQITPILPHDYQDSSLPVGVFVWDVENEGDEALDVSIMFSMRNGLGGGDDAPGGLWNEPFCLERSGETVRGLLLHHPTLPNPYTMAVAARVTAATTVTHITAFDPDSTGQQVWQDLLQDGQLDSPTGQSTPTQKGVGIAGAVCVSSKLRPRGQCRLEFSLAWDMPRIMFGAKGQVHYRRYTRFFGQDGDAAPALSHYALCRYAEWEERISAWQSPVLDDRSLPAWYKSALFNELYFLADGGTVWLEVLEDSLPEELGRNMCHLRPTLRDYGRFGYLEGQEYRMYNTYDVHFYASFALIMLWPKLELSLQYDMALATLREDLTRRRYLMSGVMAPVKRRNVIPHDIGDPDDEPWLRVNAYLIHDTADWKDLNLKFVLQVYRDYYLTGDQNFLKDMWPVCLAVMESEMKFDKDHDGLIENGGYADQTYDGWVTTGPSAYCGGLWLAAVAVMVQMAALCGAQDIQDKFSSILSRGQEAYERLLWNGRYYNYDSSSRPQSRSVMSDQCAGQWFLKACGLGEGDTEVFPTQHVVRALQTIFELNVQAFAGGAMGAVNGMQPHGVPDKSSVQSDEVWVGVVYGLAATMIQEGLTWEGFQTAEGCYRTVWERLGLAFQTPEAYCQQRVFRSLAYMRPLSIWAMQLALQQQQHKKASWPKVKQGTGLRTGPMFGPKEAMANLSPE
Experimental: Based on the pull-down validation, a set of eight cyclic peptides (L1, L2, L4, L6, D1, D8, D12 and D13) were identified, synthesized, and evaluated for their inhibitory potency against recombinant human GBA1 (rhGBA1, Cerezyme®) and their selectivity over human β-glucosidases GBA2 and GBA3. Half-maximum inhibitory concentration (IC50) values for β-glucosidases were determined in vitro by measuring hydrolysis of 4-methylumbelliferyl-β-D-glucopyranoside (4-MU-β-D-Glu) fluorogenic substrate. […]
2.5. In vitro IC50 and Ki measurements […]
nM) at 37 °C for 30 min. Following this, 100 µL of 4MU substrate was added and the samples were again incubated at 37 °C for 30 min. The reaction was quenched using excess 1 M NaOH-glycine (200 µL, pH 10.3) and 4MU fluorescence was measured using a LS55 fluorimeter (λEx 366 nm and λEm 445 […]
GBA2 and GBA3 IC50 values were determined following a similar protocol,5 using stable GBA2 or GBA3 HEK293T over-expression cell lysates and McIlvaine buffer pH 5.8 with 0.1 % BSA (w/v) and 100 mM HEPES with 0.1 % BSA, respectively. Covalent inhibitor of endogenous GBA1 (1 µM Bodipy green-cyclophellitol β-epoxide activity based probe) was added for both GBA2 and GBA3 assays, and GBA2 inhibitor N-(5-adamantane-1-yl-methoxy-pentyl)-deoxynojirimycin, AMP-DNM at 1 nM) was added for GBA3 assay. Cell lysates were pre-incubated with the aforementioned GBA1/GBA2 inhibitors for 30 min at 37 °C (12.5 µL) and subsequently incubated with the tested ligands at a range of concentrations for 30 min at 37 °C (12.5 µL), after which 100 µL 4MU-β-D-glucopyranoside was added for a final incubation of 30 min at 37 °C, quenched with 200 µL 1 M NaOH-glycine (pH 10.3) and fluorescence was measured. IC50 values were calculated using GraphPad Prism version 8.

[1] = target: T2, recombinant human GBA1 (rhGBA1, Cerezyme) (Homo sapiens, UniProt P04062, R534H); assay: Thermostability of rhGBA1, label-free differential scanning fluorimetry (Tycho NT.6); type: binding; conditions: rhGBA1 at 1 μM, 20 mM HEPES pH 7.0, 100 mM NaCl, 0.5% DMSO, 2 h room temperature; N. D. = not determined due to a lack of stabilisation effect
T2 construct: purchased Cerezyme
T2 sequence (P04062 40-536 R534H): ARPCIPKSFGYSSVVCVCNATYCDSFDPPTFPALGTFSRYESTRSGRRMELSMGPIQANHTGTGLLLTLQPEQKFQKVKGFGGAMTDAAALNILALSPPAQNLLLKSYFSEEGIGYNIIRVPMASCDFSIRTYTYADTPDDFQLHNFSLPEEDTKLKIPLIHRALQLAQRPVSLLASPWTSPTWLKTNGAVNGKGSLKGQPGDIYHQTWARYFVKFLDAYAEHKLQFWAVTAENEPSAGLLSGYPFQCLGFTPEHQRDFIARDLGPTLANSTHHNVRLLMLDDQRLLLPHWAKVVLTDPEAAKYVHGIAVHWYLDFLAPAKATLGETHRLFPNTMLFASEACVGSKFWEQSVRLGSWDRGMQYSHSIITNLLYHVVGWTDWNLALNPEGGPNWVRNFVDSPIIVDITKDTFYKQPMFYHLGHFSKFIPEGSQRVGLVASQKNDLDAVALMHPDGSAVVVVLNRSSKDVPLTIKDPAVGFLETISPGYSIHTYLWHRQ
Experimental: Samples were incubated at room temperature for 2
hours before measurement in the Tycho NT6.
Thermostability assays in rhGBA (Cerezyme)
Varying concentrations of peptides were incubated with 1 µM rhGBA1 in 20 mM HEPES pH 7.0 with 100 mM NaCl, with a final DMSO concentration of 0.5 %, for 2 hours at room temperature. Melting
curves were determined in triplicate using the Tycho NT.6 (NanoTemper), according to manufacturer

Human dermal fibroblasts = assay: Toxicity / morphology of human dermal fibroblasts; type: cell-based; conditions: 3 hours, peptide concentrations above 10 μM (10 and 100 μM)
Experimental: We further investigated GBA1 inhibition in cells. Human dermal fibroblasts were initially incubated with peptide concentrations ranging from 0.1 μM (from 0.001 μM for L4, D1 and D12) to 100 μM of each cyclic peptide for […]. […] To further confirm the inability of these peptides to cross the cell membrane, we conducted in situ competitive activity-based protein profiling (cABPP) experiments using RAW 264.7 monocyte/macrophage-like cells. […] RAW 264.7 cells were then treated with increasing concentrations of cyclic peptides (0, 0.1, 1, 10, and 100 μM) for 4 hours, followed by exposure to a cell-penetrant Bodipy red broad spectrum GBA activity-based probe (ABP), JJB75[58] at 10 nM for 2 hours (Fig. S5 for chemical structures, ESI ^†). […] This cABPP experiment further confirms that the peptides are unable to cross the cell membrane (Fig. S6, ESI ^†).

SMILES | IC50 (GBA2) [nM] | EC50 [1] [nM] | toxicity to the cells (morphology) (Human dermal fibroblasts)
CC[C@H](C)[C@H](NC(=O)[C@H](CCCNC(=N)N)NC(=O)[C@@H]1CSCC(=O)N[C@@H](Cc2ccc(O)cc2)C(=O)N[C@@H](C)C(=O)N[C@@H](Cc2ccc(O)cc2)C(=O)N[C@@H](Cc2c[nH]c3ccccc23)C(=O)N[C@@H](Cc2c[nH]c3ccccc23)C(=O)N[C@@H](CC(C)C)C(=O)N1)C(=O)N1CCC[C@H]1C(=O)N[C@@H](Cc1c[nH]c2ccccc12)C(=O)N[C@@H](CC(C)C)C(=O)N[C@@H](CO)C(=O)N[C@H](C(N)=O)C(C)C [L2] ({CH2CO}-YAYWWLCRIPWLSV-NH2; thioether N-7) | > 100000 | 2000 ± 500 | 
CC(C)C[C@H](NC(=O)[C@@H](NC(=O)[C@H](CCCNC(=N)N)NC(=O)[C@@H]1CSCC(=O)N[C@H](Cc2ccc(O)cc2)C(=O)N[C@@H]([C@@H](C)O)C(=O)N2CCC[C@H]2C(=O)NCC(=O)N[C@@H](Cc2ccc(O)cc2)C(=O)N[C@@H](C(C)C)C(=O)N[C@@H](Cc2ccc(O)cc2)C(=O)N1)C(C)C)C(=O)N[C@@H](CCCCN)C(=O)N[C@@H](Cc1ccc(O)cc1)C(=O)N[C@@H](CS)C(N)=O [D8] ({CH2CO}-[dY]TPGYVYCRVLKYC-NH2; thioether N-8) | > 100000 | 2200 ± 500 | still attached and otherwise looked healthy
CC[C@H](C)[C@@H]1NC(=O)[C@H](CO)NC(=O)[C@H](CS)NC(=O)CNC(=O)CNC(=O)[C@H](CC(C)C)NC(=O)[C@H](Cc2ccc(O)cc2)NC(=O)[C@H](C(C)C)NC(=O)[C@H](CC(C)C)NC(=O)[C@H](CCCNC(=N)N)NC(=O)[C@@H]2CCCN2C(=O)[C@H](Cc2ccc(O)cc2)NC(=O)CSC[C@@H](C(N)=O)NC(=O)[C@H](CCC(=O)O)NC(=O)[C@H](CC(C)C)NC(=O)[C@H](CC(C)C)NC1=O [L1] ({CH2CO}-YPRLVYLGGCSILLEC-NH2; thioether N-16) | > 100000 |  | 
CC(C)C[C@@H]1NC(=O)CNC(=O)[C@H](Cc2ccccc2)NC(=O)[C@H](CC(C)C)NC(=O)[C@@H]2CCCN2C(=O)[C@H](Cc2ccc(O)cc2)NC(=O)CSC[C@@H](C(=O)N2CCC[C@H]2C(=O)N[C@@H](CC(N)=O)C(=O)N[C@@H](Cc2c[nH]c3ccccc23)C(=O)N[C@@H](Cc2ccccc2)C(=O)N2CCC[C@H]2C(=O)N[C@@H](Cc2ccc(O)cc2)C(=O)N[C@@H](CCC(N)=O)C(=O)N[C@@H](CS)C(N)=O)NC(=O)[C@H](CO)NC(=O)[C@H](Cc2ccccc2)NC1=O [L4] ({CH2CO}-YPLFGLFSCPNWFPYQC-NH2; thioether N-9) | > 100000 | 2600 ± 1100 | 
CC[C@H](C)[C@@H]1NC(=O)[C@H](Cc2ccc(O)cc2)NC(=O)CSC[C@@H](C(N)=O)NC(=O)[C@H](Cc2c[nH]c3ccccc23)NC(=O)[C@H](CCC(N)=O)NC(=O)[C@H]([C@@H](C)CC)NC(=O)[C@H]([C@@H](C)CC)NC(=O)[C@@H]2CCCN2C(=O)[C@H](C(C)C)NC(=O)[C@H](Cc2ccc(O)cc2)NC(=O)[C@H](Cc2c[nH]c3ccccc23)NC(=O)[C@H](CO)NC1=O [L6] ({CH2CO}-YISWYVPIIQWC-NH2; thioether N-12) | > 100000 |  | 
CC(C)C[C@@H]1NC(=O)CNC(=O)[C@H](CC(C)C)NC(=O)[C@@H](Cc2ccc(O)cc2)NC(=O)CSC[C@@H](C(N)=O)NC(=O)[C@H](CO)NC(=O)[C@H](CCCCN)NC(=O)[C@H](CC(C)C)NC(=O)[C@H](Cc2ccccc2)NC(=O)[C@H](CCCNC(=N)N)NC(=O)[C@H](Cc2ccc(O)cc2)NC(=O)[C@H](Cc2c[nH]c3ccccc23)NC1=O [D12] ({CH2CO}-[dY]LGLWYRFLKSC-NH2; thioether N-12) | > 100000 | 1900 ± 400 | still attached and otherwise looked healthy
CC[C@H](C)[C@H](NC(=O)[C@H](CC(C)C)NC(=O)[C@H](Cc1ccc(O)cc1)NC(=O)[C@H](Cc1ccc(O)cc1)NC(=O)[C@@H]1CSCC(=O)N[C@H](Cc2ccc(O)cc2)C(=O)N[C@@H](CCCNC(=N)N)C(=O)N[C@@H](C(C)C)C(=O)N1)C(=O)N[C@H](C(=O)N[C@H](C(=O)N[C@@H](CC(C)C)C(=O)N[C@@H](CC(=O)O)C(=O)N[C@@H](CS)C(N)=O)C(C)C)[C@@H](C)O [D1] ({CH2CO}-[dY]RVCYYLITVLDC-NH2; thioether N-4) | > 100000 |  | 
